From PubChem BioAssay AID256 (DTP/NCI, 2004)
Where “and” joins values, the source holds several entries; their conditions need not be identical. Equal entries are not always repeated. Toxic doses and inconclusive results are not listed. The calls were made as follows: active = survival T/C of 150% or more; inactive = T/C below 125% in these data.

Test system: CD2F1 mice, L1210 leukemia ip, survival T/C
Experiment: NCI In Vivo Anticancer Drug Screen. Data for tumor model L1210 Leukemia (intraperitoneal) in CD2F1 (CDF1) mice
Details: higher = longer survival
In short: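 Implant tumor; dose compound or vehicle; measure endpoint in both groups; report treated divided by control.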

[1] = endpoint: mean survival time, dose: 100.0 mg/kg/injection, schedule: Q01DX001 (ip), vehicle: saline with Tween-80
[2] = endpoint: mean survival time, dose: 100.0 mg/kg/injection, schedule: Q01DX009 (ip), vehicle: saline with Tween-80
[3] = endpoint: mean survival time, dose: 100.0 mg/kg/injection, schedule: Q04DX003 (ip), vehicle: saline with Tween-80
[4] = endpoint: mean survival time, dose: 200.0 mg/kg/injection, schedule: Q01DX001 (ip), vehicle: saline with Tween-80
[5] = endpoint: mean survival time, dose: 200.0 mg/kg/injection, schedule: Q01DX009 (ip), vehicle: saline with Tween-80
[6] = endpoint: mean survival time, dose: 200.0 mg/kg/injection, schedule: Q04DX003 (ip), vehicle: saline with Tween-80
[7] = endpoint: mean survival time, dose: 400.0 mg/kg/injection, schedule: Q01DX001 (ip), vehicle: saline with Tween-80
[8] = endpoint: mean survival time, dose: 400.0 mg/kg/injection, schedule: Q01DX009 (ip), vehicle: saline with Tween-80
[9] = endpoint: mean survival time, dose: 400.0 mg/kg/injection, schedule: Q04DX003 (ip), vehicle: saline with Tween-80
[10] = endpoint: mean survival time, dose: 25.0 mg/kg/injection, schedule: Q04DX003 (ip), vehicle: saline with Tween-80
[11] = endpoint: mean survival time, dose: 50.0 mg/kg/injection, schedule: Q04DX003 (ip), vehicle: saline with Tween-80
[12] = endpoint: mean survival time, dose: 25.0 mg/kg/injection, schedule: Q01DX001 (ip), vehicle: saline with Tween-80
[13] = endpoint: mean survival time, dose: 25.0 mg/kg/injection, schedule: Q01DX009 (ip), vehicle: saline with Tween-80
[14] = endpoint: mean survival time, dose: 50.0 mg/kg/injection, schedule: Q01DX001 (ip), vehicle: saline with Tween-80
[15] = endpoint: mean survival time, dose: 100.0 mg/kg/injection, schedule: Q01DX009 (ip), vehicle: other
[16] = endpoint: mean survival time, dose: 200.0 mg/kg/injection, schedule: Q01DX009 (ip), vehicle: other
[17] = endpoint: mean survival time, dose: 400.0 mg/kg/injection, schedule: Q01DX009 (ip), vehicle: other
[18] = endpoint: mean survival time, dose: 100.0 mg/kg/injection, schedule: Q01DX001 (ip), vehicle: saline

Measured: T/C

O=C(Nc1ccc(CCO)cc1)Nc1ccc(F)c([N+](=O)[O-])c1
inactive: [1] 98 % of control | [2] 93 % of control | [3] 101 % of control | [4] 96 % of control | [5] 94 % of control | [6] 98 % of control | [7] 92 % of control | [8] 93 % of control | [9] 102 % of control

CCC[CH2][Pb]([CH2]CCC)([CH2]CCC)[O]C(C)=O
inactive: endpoint: mean survival time, dose: 2.5 mg/kg/injection, schedule: Q01DX001 (ip), vehicle: other 96 % of control | endpoint: mean survival time, dose: 5.0 mg/kg/injection, schedule: Q01DX001 (ip), vehicle: other 115 % of control | endpoint: mean survival time, dose: 10.0 mg/kg/injection, schedule: Q01DX001 (ip), vehicle: other 93 % of control | [10] 95 % of control | [11] 87 % of control

CCOC(=O)C(C(C)=O)C(C)C (configuration not stated)
inactive: endpoint: mean survival time, dose: 25.0 mg/kg/injection, schedule: Q01DX009 (ip), vehicle: water 95 % of control | endpoint: mean survival time, dose: 50.0 mg/kg/injection, schedule: Q01DX009 (ip), vehicle: water 102 % of control | endpoint: mean survival time, dose: 100.0 mg/kg/injection, schedule: Q01DX009 (ip), vehicle: water 102 % of control | endpoint: mean survival time, dose: 200.0 mg/kg/injection, schedule: Q01DX009 (ip), vehicle: water 97 % of control | endpoint: mean survival time, dose: 400.0 mg/kg/injection, schedule: Q01DX009 (ip), vehicle: water 97 % of control

O=[N+]([O-])c1ccc(Cn2cc[n+](Cc3ccc([N+](=O)[O-])cc3)c2)cc1
inactive: endpoint: mean survival time, dose: 12.5 mg/kg/injection, schedule: Q01DX009 (ip), vehicle: saline with Tween-80 98 % of control | [12] 108 % of control | [13] 90 % of control | [14] 104 % of control | endpoint: mean survival time, dose: 50.0 mg/kg/injection, schedule: Q01DX009 (ip), vehicle: saline with Tween-80 93 % of control | [1] 98 % of control

COc1cc(C(O)C(Cl)(Cl)Cl)ccc1O (configuration not stated)
inactive: [15] 94 % of control | [16] 105 % of control | [17] 94 % of control

O/N=C/c1ccccc1
inactive: endpoint: mean survival time, dose: 11.0 mg/kg/injection, schedule: Q01DX009 (ip), vehicle: saline with Tween-80 108 % of control | endpoint: mean survival time, dose: 16.5 mg/kg/injection, schedule: Q01DX009 (ip), vehicle: saline with Tween-80 94 % of control | endpoint: mean survival time, dose: 25.0 mg/kg/injection, schedule: Q01DX001 (ip), vehicle: saline 97 % of control | [13] 97 % of control | endpoint: mean survival time, dose: 37.5 mg/kg/injection, schedule: Q01DX009 (ip), vehicle: saline with Tween-80 95 % of control | endpoint: mean survival time, dose: 50.0 mg/kg/injection, schedule: Q01DX001 (ip), vehicle: saline 97 % of control | [1] 97 % of control | [18] 101 % of control

O=C(OC1C=CCC=C1)c1cc([N+](=O)[O-])cc([N+](=O)[O-])c1
inactive: [15] 101 % of control | [16] 95 % of control | [17] 93 % of control

COc1ccc(NC2=C(C)C(=O)C3=C(C2=O)[C@H](COC(N)=O)[C@]2(OC)[C@@H]4N[C@@H]4CN32)cc1OC
inactive: endpoint: median survival time, dose: 3.0 mg/kg/injection, schedule: Q01DX001 (ip), vehicle: water 124 % of control and 111 % of control | endpoint: median survival time, dose: 6.0 mg/kg/injection, schedule: Q01DX001 (ip), vehicle: water 124 % of control | endpoint: median survival time, dose: 24.0 mg/kg/injection, schedule: Q01DX001 (ip), vehicle: water 110 % of control

COC1(OC)C(Cl)=C(Cl)C2C1C1(Cl)C(Cl)=C(Cl)C2(Cl)C1(OC)OC (configuration not stated)
inactive: [18] 106 % of control | endpoint: mean survival time, dose: 100.0 mg/kg/injection, schedule: Q04DX003 (ip), vehicle: saline 105 % of control | endpoint: mean survival time, dose: 200.0 mg/kg/injection, schedule: Q01DX001 (ip), vehicle: saline 106 % of control | endpoint: mean survival time, dose: 200.0 mg/kg/injection, schedule: Q04DX003 (ip), vehicle: saline 103 % of control | endpoint: mean survival time, dose: 400.0 mg/kg/injection, schedule: Q01DX001 (ip), vehicle: saline 102 % of control | endpoint: mean survival time, dose: 400.0 mg/kg/injection, schedule: Q04DX003 (ip), vehicle: saline 100 % of control

CCN(CC)Cc1cc(Nc2c3ccc(Cl)cc3nc3ccc(OC)nc23)ccc1O
inactive: [12] 94 % of control | [14] 94 % of control | [1] 90 % of control | [4] 95 % of control | [7] 91 % of control

CC(C)(C)NC/C(=C\c1ccccc1)C(=O)c1ccccc1
inactive: [10] 109 % of control | [11] 100 % of control | [3] 117 % of control

CS(=O)(=O)OC1C(OC(=O)OCc2ccccc2)C2COC(O2)C1OC(=O)OCc1ccccc1 (configuration not stated)
inactive: [2] 92 % of control | [5] 92 % of control | [8] 89 % of control

CCCCCCCCCCCCCCCCCCSC1=CC(=O)C(OC)=C(OC)C1=O
inactive: endpoint: mean survival time, dose: 3.13 mg/kg/injection, schedule: Q01DX009 (ip), vehicle: Klucel (hydroxypropylcellulose) (HPC) 90 % of control | endpoint: mean survival time, dose: 6.25 mg/kg/injection, schedule: Q01DX009 (ip), vehicle: Klucel (hydroxypropylcellulose) (HPC) 88 % of control | endpoint: mean survival time, dose: 50.0 mg/kg/injection, schedule: Q01DX009 (ip), vehicle: Klucel (hydroxypropylcellulose) (HPC) 94 % of control

CC(=O)CC(=O)OCc1ccccc1
inactive: [3] 100 % of control | [6] 95 % of control | [9] 103 % of control

CC(CCC(C)OS(C)(=O)=O)OS(C)(=O)=O (configuration not stated)
inactive: endpoint: mean survival time, dose: 4.0 mg/kg/injection, schedule: Q01DX009 (ip), vehicle: saline 118 % of control and 107 % of control | endpoint: mean survival time, dose: 8.0 mg/kg/injection, schedule: Q01DX009 (ip), vehicle: saline 110 % of control

COc1cc2c(cc1OC)C1CC(=O)C3=C(CCCC3)N1CC2 (configuration not stated)
inactive: [3] 101 % of control | [6] 95 % of control | [9] 89 % of control

COC(=O)C(N)Cc1ccc(O)c(O)c1 (configuration not stated)
inactive: endpoint: mean survival time, dose: 12.5 mg/kg/injection, schedule: Q01DX009 (ip), vehicle: saline 101 % of control and 107 % of control | endpoint: mean survival time, dose: 25.0 mg/kg/injection, schedule: Q01DX009 (ip), vehicle: saline 101 % of control and 107 % of control | endpoint: mean survival time, dose: 50.0 mg/kg/injection, schedule: Q01DX009 (ip), vehicle: saline 95 % of control and 103 % of control | endpoint: mean survival time, dose: 100.0 mg/kg/injection, schedule: Q01DX009 (ip), vehicle: saline 94 % of control and 103 % of control and 107 % of control | endpoint: mean survival time, dose: 200.0 mg/kg/injection, schedule: Q01DX009 (ip), vehicle: saline 113 % of control and 101 % of control and 110 % of control | endpoint: mean survival time, dose: 400.0 mg/kg/injection, schedule: Q01DX009 (ip), vehicle: saline 117 % of control and 110 % of control (2×) | endpoint: mean survival time, dose: 800.0 mg/kg/injection, schedule: Q01DX009 (ip), vehicle: saline 116 % of control and 123 % of control

CCCCCCCCCCCCCCCCn1cnc2c(Cl)ncnc21
inactive: endpoint: mean survival time, dose: 12.5 mg/kg/injection, schedule: Q01DX005 (ip), vehicle: other 94 % of control | endpoint: mean survival time, dose: 25.0 mg/kg/injection, schedule: Q01DX005 (ip), vehicle: other 91 % of control | endpoint: mean survival time, dose: 50.0 mg/kg/injection, schedule: Q01DX005 (ip), vehicle: other 91 % of control | endpoint: mean survival time, dose: 100.0 mg/kg/injection, schedule: Q01DX005 (ip), vehicle: other 92 % of control | endpoint: mean survival time, dose: 200.0 mg/kg/injection, schedule: Q01DX005 (ip), vehicle: other 89 % of control
